From patent US20230089715A1, “MASITINIB FOR THE TREATMENT OF A MULTIPLE SCLEROSIS PATIENT SUBPOPULATION” (AB SCIENCE, priority 2020, published 2023)

System: patients with progressive multiple sclerosis (PPMS or non-active SPMS)
Assay: Study AB07002: randomized, double-blind, placebo-controlled phase 3 study, overall EDSS change from baseline
Assay type: in vivo, human
Set-up: key to LSM EDSS, MAS (overall EDSS change from baseline): LS mean EDSS change from baseline; positive value = worsening
Conditions: 4.5 mg/kg/day oral; for ΔEDSS (between group difference, treatment-effect vs placebo) / LSM EDSS, MAS (overall EDSS change from baseline) / R % (relative difference in ΔEDSS with respect to full analysis dataset): 96 weeks; for treatment-effect with respect to placebo (EDSS): non-active SPMS
Method: An international, multicenter, randomized, double-blind, placebo-controlled phase 3 study was conducted with the objective to evaluate oral masitinib at a dose of 4.5 mg/kg/day as a treatment for progressive multiple sclerosis (progressive MS), as defined hereinabove. […] Eligible patients were treated for 96 weeks with masitinib at a dose of 4.5 mg/kg/day (mg per kilo body weight per day) or with placebo. Primary endpoint was overall EDSS change from baseline using a repeated analysis of covariance model (i.e., ANCOVA GEE model on all measurements from week 12 (W12) to week 96 (W96)). Results are expressed as least-squares means difference, illustrating the progression of EDSS score, that is to say the change over time in the EDSS score or in other words the difference between the EDSS score at baseline and the EDSS score after treatment with masitinib or with placebo (a positive value indicates a worsening of the patient). Treatment-effect is reported as between-group difference (ΔLSM, negative value indicates a beneficial effect of treatment with masitinib as compared to treatment with placebo). […] Patients suffering from a disease other than MS that would better explain their neurological clinical signs and symptoms and/or lesions observed with magnetic resonance imaging (“MRI lesions”) were excluded. Subpopulation analyses of primary endpoint data from study AB07002 assessed the impact of the clinical markers ‘time from onset’ with respect to baseline (i.e., date of treatment initiation), derived from the estimated date of first clinical MS symptom(s), or ‘time from diagnosis’ with respect to baseline (i.e., date of treatment initiation), on masitinib efficacy in patients with progressive MS (see Example 3). ‘Time from onset’ is derived from the date (year/month/day, year/month, or year) of first clinical symptom(s) with duration calculated from date of treatment initiation. The date of first symptom(s) is typically determined retrospectively from medical history, for example from medical records and patient/caregiver historical recall of MS related symptoms following a clinically definite diagnosis. Imputation of missing data can be handled using various methods, one example of which is the following approach: if the information regarding day is missing, the day is considered to be the last day of the month; if the day and month are missing, the day is considered to be the last day of June. ‘Time from diagnosis’ of progressive MS, is ideally based on a clinically definite diagnosis of progressive MS as determined by a MS specialist neurologist. In practice it is derived from the date (year/month/day, year/month, or year) of first clinically definite diagnosis of progressive MS, i.e., PPMS or non-active SPMS, with duration calculated from date of treatment initiation. At the time of MS diagnosis, a provisional disease course should be specified (relapsing-remitting, primary progressive, or secondary progressive) and whether the course is active or not (non-active) and progressive or not based on the previous year's history. The phenotype should be periodically re-evaluated based on accumulated information. Comparison of subpopulation analyses with respect to the corresponding full analysis dataset (see Table 4) is reported as relative difference in ΔEDSS (R %). A large positive R % value indicates a subpopulation that receives greater benefit from masitinib treatment, while a negative R % value indicates a diminished treatment-effect or lack of discernable treatment-effect in the subpopulation.

[1] = nSPMS, T(diag) > 2 Y and T(onset) > 5 Y

With `Cc1ccc(NC(=O)c2ccc(CN3CCN(C)CC3)cc2)cc1Nc1nc(-c2cccnc2)cs1` [masitinib, 4-(4-methylpiperazin-1-ylmethyl)-N-[4-methyl-3-(4-pyridin-3ylthiazol-2-ylamino)phenyl]benzamide] the “ΔEDSS (between group difference, treatment-effect vs placebo)” value (Progressive MS, T(diag) ≤ 1 Y) was 0.261, the “LSM EDSS, MAS (overall EDSS change from baseline)” value (Progressive MS, T(diag) ≤ 2 Y) was 0.163 and the “LSM EDSS, MAS (overall EDSS change from baseline)” value (Progressive MS, T(diag) ≤ 3 Y) was 0.056. For the same compound, the “ΔEDSS (between group difference, treatment-effect vs placebo)” value (Progressive MS, T(diag) ≤ 3 Y) was 0.053, the “LSM EDSS, MAS (overall EDSS change from baseline)” value (Progressive MS, T(diag) ≤ 4 Y) was 0.075 and the “ΔEDSS (between group difference, treatment-effect vs placebo)” value (Progressive MS, T(diag) ≤ 4 Y) was −0.028. For the same compound, the “LSM EDSS, MAS (overall EDSS change from baseline)” value (Progressive MS, T(onset) > 1 Y) was 0.012, the “R % (relative difference in ΔEDSS with respect to full analysis dataset)” value (Progressive MS, T(onset) > 1 Y) was −5% and the “ΔEDSS (between group difference, treatment-effect vs placebo)” value (Progressive MS, T(onset) > 1 Y) was −0.094. The “LSM EDSS, MAS (overall EDSS change from baseline)” value (Progressive MS, T(onset) > 2 Y) was 0.004, the “R % (relative difference in ΔEDSS with respect to full analysis dataset)” value (Progressive MS, T(onset) > 2 Y) was 1% and the “ΔEDSS (between group difference, treatment-effect vs placebo)” value (Progressive MS, T(onset) > 2 Y) was −0.100. For the same compound, the “LSM EDSS, MAS (overall EDSS change from baseline)” value (Progressive MS, T(onset) > 3 Y) was −0.010, the “R % (relative difference in ΔEDSS with respect to full analysis dataset)” value (Progressive MS, T(onset) > 3 Y) was 20% and the “ΔEDSS (between group difference, treatment-effect vs placebo)” value (Progressive MS, T(onset) > 3 Y) was −0.119. The “LSM EDSS, MAS (overall EDSS change from baseline)” value (Progressive MS, T(onset) > 4 Y) was −0.027, the “R % (relative difference in ΔEDSS with respect to full analysis dataset)” value (Progressive MS, T(onset) > 4 Y) was 29% and the “ΔEDSS (between group difference, treatment-effect vs placebo)” value (Progressive MS, T(onset) > 4 Y) was −0.128. For the same compound, the “LSM EDSS, MAS (overall EDSS change from baseline)” value (Progressive MS, T(onset) > 5 Y) was −0.031, the “ΔEDSS (between group difference, treatment-effect vs placebo)” value (Progressive MS, T(onset) > 5 Y) was −0.156 and the “R % (relative difference in ΔEDSS with respect to full analysis dataset)” value (Progressive MS, T(onset) > 5 Y, 4.5 mg/kg/day) was 58%. For the same compound, the “LSM EDSS, MAS (overall EDSS change from baseline)” value (Progressive MS, T(onset) ≤ 3 Y) was 0.106, the “ΔEDSS (between group difference, treatment-effect vs placebo)” value (Progressive MS, T(onset) ≤ 3 Y) was 0.346 and the “LSM EDSS, MAS (overall EDSS change from baseline)” value (Progressive MS, T(onset) ≤ 4 Y) was −0.000. For the same compound, the “ΔEDSS (between group difference, treatment-effect vs placebo)” value (Progressive MS, T(onset) ≤ 4 Y) was 0.146, the “LSM EDSS, MAS (overall EDSS change from baseline)” value (Progressive MS, T(onset) ≤ 5 Y) was 0.259 and the “LSM EDSS, MAS (overall EDSS change from baseline)” value (Progressive MS, complement T(diag) ≤ 2 Y or T(onset) ≤ 5 Y) was 0.173. The “LSM EDSS, MAS (overall EDSS change from baseline)” value (Progressive MS, full analysis dataset) was 0.008, the “ΔEDSS (between group difference, treatment-effect vs placebo)” value (Progressive MS, full analysis dataset, 4.5 mg/kg/day) was −0.099 and the “ΔEDSS (between group difference, treatment-effect vs placebo)” value (Progressive MS, full analysis dataset, listed as Masitinib, 4.5 mg/kg/day) was “significant slowing of EDSS progression”. For the same compound, the “LSM EDSS, MAS (overall EDSS change from baseline)” value (nSPMS, T(diag) > 1 Y) was −0.039, the “R % (relative difference in ΔEDSS with respect to full analysis dataset)” value (nSPMS, T(diag) > 1 Y) was 6% and the “ΔEDSS (between group difference, treatment-effect vs placebo)” value (nSPMS, T(diag) > 1 Y) was −0.101. For the same compound, the “LSM EDSS, MAS (overall EDSS change from baseline)” value [1] was −0.051, the “ΔEDSS (between group difference, treatment-effect vs placebo)” value [1] was −0.118 and the “R % (relative difference in ΔEDSS with respect to full analysis dataset)” value (nSPMS, T(diag) > 2 Y and T(onset) > 5 Y, 4.5 mg/kg/day) was 24%. For the same compound, the “LSM EDSS, MAS (overall EDSS change from baseline)” value (nSPMS, T(diag) > 2 Y) was −0.039, the “R % (relative difference in ΔEDSS with respect to full analysis dataset)” value (nSPMS, T(diag) > 2 Y) was 7% and the “LSM EDSS, MAS (overall EDSS change from baseline)” value (nSPMS, T(diag) > 3 Y) was −0.045. For the same compound, the “R % (relative difference in ΔEDSS with respect to full analysis dataset)” value (nSPMS, T(diag) > 3 Y) was 13%, the “LSM EDSS, MAS (overall EDSS change from baseline)” value (nSPMS, T(diag) > 4 Y) was −0.050 and the “R % (relative difference in ΔEDSS with respect to full analysis dataset)” value (nSPMS, T(diag) > 4 Y) was 29%. For the same compound, the “ΔEDSS (between group difference, treatment-effect vs placebo)” value (nSPMS, T(diag) > 4 Y) was −0.123, the “LSM EDSS, MAS (overall EDSS change from baseline)” value (nSPMS, T(diag) ≤ 4 Y) was 0.036 and the “ΔEDSS (between group difference, treatment-effect vs placebo)” value (nSPMS, T(diag) ≤ 4 Y) was −0.004. For the same compound, the “LSM EDSS, MAS (overall EDSS change from baseline)” value (nSPMS, T(onset) > 1 Y) was −0.035, the “R % (relative difference in ΔEDSS with respect to full analysis dataset)” value (nSPMS, T(onset) > 1 Y) was 0% and the “ΔEDSS (between group difference, treatment-effect vs placebo)” value (nSPMS, T(onset) > 1 Y) was −0.095. The “LSM EDSS, MAS (overall EDSS change from baseline)” value (nSPMS, T(onset) > 2 Y) was −0.035, the “R % (relative difference in ΔEDSS with respect to full analysis dataset)” value (nSPMS, T(onset) > 2 Y) was 0% and the “ΔEDSS (between group difference, treatment-effect vs placebo)” value (nSPMS, T(onset) > 2 Y) was −0.095. The “LSM EDSS, MAS (overall EDSS change from baseline)” value (nSPMS, T(onset) > 3 Y) was −0.037, the “R % (relative difference in ΔEDSS with respect to full analysis dataset)” value (nSPMS, T(onset) > 3 Y) was 7% and the “ΔEDSS (between group difference, treatment-effect vs placebo)” value (nSPMS, T(onset) > 3 Y) was −0.102. The “LSM EDSS, MAS (overall EDSS change from baseline)” value (nSPMS, T(onset) > 4 Y) was −0.040, the “R % (relative difference in ΔEDSS with respect to full analysis dataset)” value (nSPMS, T(onset) > 4 Y) was 16% and the “ΔEDSS (between group difference, treatment-effect vs placebo)” value (nSPMS, T(onset) > 4 Y) was −0.110. For the same compound, the “LSM EDSS, MAS (overall EDSS change from baseline)” value (nSPMS, T(onset) > 5 Y) was −0.050, the “R % (relative difference in ΔEDSS with respect to full analysis dataset)” value (nSPMS, T(onset) > 5 Y) was 23% and the “LSM EDSS, MAS (overall EDSS change from baseline)” value (nSPMS, full analysis dataset) was −0.035. For the same compound, the “ΔEDSS (between group difference, treatment-effect vs placebo)” value (nSPMS, full analysis dataset, 4.5 mg/kg/day) was −0.095, the “ΔEDSS (between group difference, treatment-effect vs placebo)” value (nSPMS, full analysis dataset, listed as Masitinib, 4.5 mg/kg/day) was “significant slowing of EDSS progression” and the “treatment-effect with respect to placebo (EDSS)” value (time from diagnosis to treatment initiation of no more than 2 year) was “no discernable treatment-effect”. For the same compound, the “treatment-effect with respect to placebo (EDSS)” value (time from onset to treatment initiation of no more than 5 year) was “no discernable treatment-effect”.
